Measurements as given in patent US20220340983A1, “SYSTEMS AND ASSAYS FOR IDENTIFYING PU.1 INHIBITORS” (Massachustts Institute of Technology, priority 2019, published 2022).

Legend:
[1] = test system: PU.1 dependent gene expression; experiment: RT-qPCR of mRNA levels in BV2 PU.1-Luciferase cells (validation round 3); format: cell-based, mouse; details: 2-day treatment
Protocol: The Asinex1 and ChemDiv6 libraries contain molecules with unknown biological properties, but with low toxicity, high stability, and a broad structural diversity used to generate structure-activity-relationships (SAR) of the PU.1 inhibitors. […] In order to obtain the SAR, three rounds of validation were performed. In round 1, false-positive, non-specific luciferase quencher molecules were excluded using the commercially available HEK293 CMV-Luciferase line that constitutively expresses luciferase under the CMV promoter. In round 2, weak (non-significant) hits were eliminated according to degree of PU.1 inhibition in the absence of cell death. In round 3, drugs were selected that reduce PU.1-dependent gene expression with RT-qPCR.

PU.1 = target: T1, PU.1 (Mus musculus, UniProt P17433); experiment: Luciferase assay (luminescence) in BV2 PU.1-Luciferase reporter cells; format: cell-based; details: luminescence reduction in BV2 PU.1-Luciferase cells, concentration-response, Hill's equation
T1 construct: endogenous in cells; host or cells: BV2 PU.1-Luciferase (mouse microglial BV2 with a 5xLBB-luciferase reporter integrated at ROSA26)
Excerpt: PU.1 belongs to a group of transcription factors that all bind to the middle 5′-GGAA-3′ sequence. The flanking A/T rich sequence is crucial for conferring PU.1 selective binding. The flanking sequence requires unique structural properties of PU.1 and can therefore be targeted by drugs acting as allosteric inhibitors that prevent PU.1 from binding to the LBB. In order to achieve robust PU.1 binding, five tandem copies of the LBBs (5×LBB) were inserted into the luciferase promoter of the pGL4.23 plasmid. The region containing the five LBBs (5×LBB) was then subcloned into the pROSA26-1 plasmid (together with a PGKneo bpA plasmid for Neomycin/G418 resistance) that allows stable integration in chromosome 6 of the immortalized mouse microglial BV2 cell line (FIG. 2B). The stable cell line was created by selection with G418.
The BV2 PU.1-Luciferase cells (referred to as “cells” from here onward) were plated into a 384-well plate, using an automatic dispenser, 2000 cells per well in 30 μL of media composed of RPMI (Sigma-Aldrich), 10% FBS, 1% PenStrep (50 mg/mL) and 1% G418 (50 mg/mL) was plated. A robotic arm was used to transfer compounds in a 384-well format using a pin array into the plate containing the cells (here, 33 nL was transferred from a drug library containing 10 mM concentration of drugs for a final concentration of 10 μM per well). For reproducibility, each pin array with 384 compounds was added to 4 plates of cells. […] Subsequently, automatic of 30 μL of BrightGlo (Promega) was dispensed into 2 of the 4 plates, in order to lyse the cells and drive the luminescence reaction whereafter the luminescence intensity was measured by a plate reader (Perkin Elmer EnVision). The two other plates were fixed by automatically dispensing 30 μL of 10% formaldehyde with 2μL Hoechst per 1 mL formaldehyde which were left at room temperature for one hour, followed by plate reading (Acumen (TTPLabTech)). A compound transfer and treatment would be repeated if reproducibility between the luminescence plates and/or the fixed Hoechst plates was lacking. The drugs were selected and ranked according to the criteria described in FIG. 13. Luminescence values used were corrected for crosstalk. Hoechst values were total fluorescence area per well. Determination of a positive hit considered both the reduction of luminescence as well as a possible confounding reduction in cell viability. The formula used was y=(value−meanvalue)/stddev. […] Compounds were excluded if cell viability was reduced >2 standard deviations from the mean, using the same formula. The positive hits were then validated in multiple steps in order to identify true PU.1 inhibitors.
The degree of luminescence reduction of the hits was plotted with significant effective area under the curve in order to obtain an IC50.

IC50 (PU.1) [nM]	Structure (SMILES)	mRNA levels Apoe [1]	mRNA levels IL1β [1]	mRNA levels Lucif. [1]	mRNA levels Spi1 [1]	mRNA levels Trem2 [1]	mRNA levels Tyrobp [1]
876	CCc1ccc(CNC(=O)C2CCCN(c3nn4cc(-c5ccc(F)cc5)nc4s3)C2)cc1 (stereo not shown) [Compound 2C2]	1.035 multiples of 1×	0.954 multiples of 1×	0.504 multiples of 1×	1.034 multiples of 1×	1.031 multiples of 1×	1.130 multiples of 1×
2310	CC(C)c1ccc(C2Sc3ccccc3NC3=C2C(=O)c2ccccc23)cc1 (stereo not shown) [Compound 1B5]	0.797 multiples of 1×	0.843 multiples of 1×	0.491 multiples of 1×	0.831 multiples of 1×	0.775 multiples of 1×	0.697 multiples of 1×
3	C[C@@H]1C[C@H]2[C@@H]3CCC4=CC(=O)C=C[C@]4(C)[C@@]3(Cl)[C@@H](O)C[C@]2(C)[C@@]1(O)C(=O)CCl [Mometasone, reference compound]	1.444 multiples of 1×	0.531 multiples of 1×	0.520 multiples of 1×	1.016 multiples of 1×	1.051 multiples of 1×	1.343 multiples of 1×
2430	Cc1ccc(-c2nc3cc(C(C)C)ccc3o2)cc1NC(=O)c1cc([N+](=O)[O-])ccc1N1CCOCC1 [Compound 1C4]	0.883 multiples of 1×	0.813 multiples of 1×	0.290 multiples of 1×	1.142 multiples of 1×	0.928 multiples of 1×	1.197 multiples of 1×
38	CCOc1ccc(S(=O)(=O)NCc2ccncc2)cc1C(C)C [Compound D09]	0.390 multiples of 1×	0.938 multiples of 1×	0.360 multiples of 1×	0.781 multiples of 1×	0.437 multiples of 1×	0.496 multiples of 1×
507	CSc1ccc(C=Cc2nc3ccccc3n2S(=O)(=O)c2ccc(F)c(C)c2)cc1 [Compound 2G10]	0.899 multiples of 1×	0.786 multiples of 1×	0.531 multiples of 1×	0.790 multiples of 1×	0.993 multiples of 1×	0.855 multiples of 1×
4800	Cn1nccc1C(=O)NCc1ccc2c(c1)CCN2C(=O)c1ccc(F)cc1 [Compound 2G2]	0.957 multiples of 1×	0.887 multiples of 1×	0.294 multiples of 1×	0.958 multiples of 1×	1.071 multiples of 1×	0.963 multiples of 1×
2650	Cc1c(Cl)cccc1-n1ncc(C(=O)Nc2ccc3c(c2)OCCO3)c1C1CCN(C(=O)OC(C)(C)C)CC1 [Compound 2D3]	0.980 multiples of 1×	0.960 multiples of 1×	0.480 multiples of 1×	0.922 multiples of 1×	0.987 multiples of 1×	0.950 multiples of 1×
380	CCOc1ccc(-c2nc(CSCC(=O)NCc3ccc(C)cc3)c(C)o2)cc1 [Compound 2H2]	1.739 multiples of 1×	0.706 multiples of 1×	0.299 multiples of 1×	1.251 multiples of 1×	1.668 multiples of 1×	1.952 multiples of 1×
25	Cn1nc(CC(=O)Nc2ccc(N3CCN(C(=O)OC(C)(C)C)CC3)cc2)c2ccccc2c1=O [Compound D06]	1.233 multiples of 1×	0.590 multiples of 1×	0.153 multiples of 1×	1.030 multiples of 1×	1.510 multiples of 1×	1.374 multiples of 1×
3620	CCc1ccc(NC(=O)Cn2c(=O)oc3cc(S(=O)(=O)N4CCCCCC4)ccc32)cc1 [Compound 2A7]	0.886 multiples of 1×	0.435 multiples of 1×	0.328 multiples of 1×	0.739 multiples of 1×	0.942 multiples of 1×	0.928 multiples of 1×
1480	N#CC(=CNc1ccc2c(c1)OCCO2)c1nc2ccccc2[nH]1 [Compound A09]	0.941 multiples of 1×	0.644 multiples of 1×	0.513 multiples of 1×	0.931 multiples of 1×	0.879 multiples of 1×	0.821 multiples of 1×
663	CC(=NCCCn1ccnc1)c1c(C(F)(F)F)[nH]n(-c2nc3ccccc3s2)c1=O [Compound E01]	0.823 multiples of 1×	0.986 multiples of 1×	0.416 multiples of 1×	0.912 multiples of 1×	0.903 multiples of 1×	0.988 multiples of 1×
1740	CCOC(=O)c1ccc(NS(=O)(=O)c2cc(Br)cc3c2N(C(C)=O)C(C)C3)cc1 (stereo not shown) [Compound 1D3]	0.928 multiples of 1×	1.144 multiples of 1×	0.347 multiples of 1×	0.965 multiples of 1×	1.031 multiples of 1×	1.102 multiples of 1×
1420	COc1ccc(NS(=O)(=O)c2ccc3c(c2)CCCN3C(=O)C2CCC2)cc1OC [Compound 2F7]	1.146 multiples of 1×	0.460 multiples of 1×	0.216 multiples of 1×	0.936 multiples of 1×	1.442 multiples of 1×	1.498 multiples of 1×
2620	CCCCN(C)C(=O)C1CCCN(c2ncnc3onc(C)c23)C1 (stereo not shown) [Compound 2D5]	1.400 multiples of 1×	0.287 multiples of 1×	0.359 multiples of 1×	1.015 multiples of 1×	1.852 multiples of 1×	2.257 multiples of 1×
1340	Cc1ccc(C)c(N2CCN(C(=O)C3CCN(c4nc(-c5ccc(C(C)C)cc5)no4)CC3)CC2)c1 [Compound 2E10]	1.244 multiples of 1×	1.082 multiples of 1×	0.611 multiples of 1×	1.133 multiples of 1×	1.253 multiples of 1×	1.158 multiples of 1×
2570	CC(C)c1ccc(NC(=O)Cn2c(=O)oc3cc(S(=O)(=O)N4CCCC4)ccc32)cc1 [Compound 2A9]	0.988 multiples of 1×	1.048 multiples of 1×	0.391 multiples of 1×	1.073 multiples of 1×	0.958 multiples of 1×	1.059 multiples of 1×
477	Cc1ccccc1NC(=O)C(C)Sc1nc2ccccc2c(=O)n1C (stereo not shown) [Compound D04]	0.841 multiples of 1×	0.866 multiples of 1×	0.519 multiples of 1×	0.865 multiples of 1×	0.976 multiples of 1×	1.071 multiples of 1×
